According to ChEMBL document CHEMBL1201862, “PubChem BioAssay data set” (2004):
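Five concentrations, 48 hours, 96-well plates. GI50 = concentration required for 50% inhibition of growth.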 The source made the active and inactive calls. Rule as the data show it: active = GI50 up to about 1.1 µM and inactive = higher.

Key:
Experiment in all cases: inhibition of tumour cell growth, NCI panel, 48 h
Hs-578T = tested on: Hs-578T
NCI-H460 = tested on: NCI-H460
SF-268 = tested on: SF-268
EKVX = tested on: EKVX
CAKI-1 = tested on: CAKI-1
OVCAR-3 = tested on: OVCAR-3
HOP-62 = tested on: HOP-62
HCT-116 = tested on: HCT-116
U-251 = tested on: U-251
SF-295 = tested on: SF-295
IGROV-1 = tested on: IGROV-1
CCRF-CEM = tested on: CCRF-CEM
HCC 2998 = tested on: HCC 2998
HT-29 = tested on: HT-29
MDA-MB-435 = tested on: MDA-MB-435
SNB-19 = tested on: SNB-19
UO-31 = tested on: UO-31
RPMI-8226 = tested on: RPMI-8226
OVCAR-4 = tested on: OVCAR-4

Measured: GI50

Cc1cc2nnn(C3CCCO3)c2cc1C (centres undefined)
inactive: Hs-578T > 100 µM | NCI-H460 > 100 µM | SF-268 > 100 µM | EKVX > 100 µM | CAKI-1 > 100 µM | OVCAR-3 > 100 µM | HOP-62 > 100 µM | HCT-116 > 100 µM | U-251 > 100 µM | SF-295 > 100 µM | IGROV-1 > 100 µM | CCRF-CEM > 100 µM | HCC 2998 > 100 µM | HT-29 > 100 µM | MDA-MB-435 > 100 µM

CN(N=O)N1C(=O)SCC(c2ccccc2)(c2ccccc2)C1=O
inactive: Hs-578T 56.8 µM | NCI-H460 9.62 µM | SF-268 32.1 µM | EKVX 34.7 µM | SNB-19 57.9 µM | CAKI-1 46.3 µM | OVCAR-3 37.6 µM | HOP-62 65.9 µM | UO-31 25.8 µM | HCT-116 40.4 µM | RPMI-8226 25.8 µM | U-251 28.4 µM | SF-295 35.6 µM | CCRF-CEM 31.1 µM | HCC 2998 89.1 µM | HT-29 33.3 µM | MDA-MB-435 24.3 µM

Cc1ccc(S(=O)(=O)N/N=C2/C3C(CC2(C)C)C2(C)CCCC3(C)C2O)cc1 (centres undefined)
inactive: Hs-578T 19 µM | NCI-H460 17.8 µM | SF-268 30.5 µM | EKVX 45.7 µM | SNB-19 29.4 µM | CAKI-1 39.3 µM | OVCAR-3 34.4 µM | HOP-62 30.1 µM | UO-31 26.2 µM | HCT-116 18.7 µM | RPMI-8226 35.6 µM | OVCAR-4 19.1 µM | U-251 16.3 µM | SF-295 15.4 µM | IGROV-1 25 µM | CCRF-CEM 16.8 µM | HT-29 20.1 µM | MDA-MB-435 > 10 µM

O=P(O)(O)CC1OC(CO)C(O)C1O (centres undefined)
inactive: Hs-578T > 100 µM | NCI-H460 > 100 µM | SF-268 > 100 µM | EKVX > 100 µM | SNB-19 > 100 µM | CAKI-1 > 100 µM | OVCAR-3 > 100 µM | UO-31 > 100 µM | HCT-116 > 100 µM | OVCAR-4 > 100 µM | U-251 > 100 µM | SF-295 > 100 µM | IGROV-1 > 100 µM | CCRF-CEM > 100 µM | HCC 2998 > 100 µM | HT-29 > 100 µM | MDA-MB-435 > 100 µM

Cc1nn(C(=O)Cc2ccccc2)c2c1C(c1ccc(O)cc1O)SC(=N)N2 (centres undefined)
inactive: Hs-578T > 100 µM | NCI-H460 > 100 µM | SF-268 > 100 µM | EKVX > 100 µM | SNB-19 > 100 µM | CAKI-1 > 100 µM | HOP-62 > 100 µM | UO-31 > 100 µM | HCT-116 > 100 µM | RPMI-8226 > 100 µM | SF-295 > 100 µM | IGROV-1 > 100 µM | CCRF-CEM > 100 µM | HCC 2998 > 100 µM | HT-29 > 100 µM | MDA-MB-435 > 100 µM

CCOC(=O)CCC(NC(=O)Cc1ccc(Nc2nc3cc(F)c(F)cc3nc2C(=O)OCC)cc1)C(=O)OCC (centres undefined)
inactive: Hs-578T 40.8 µM | NCI-H460 > 100 µM | SF-268 31.3 µM | EKVX > 100 µM | SNB-19 > 100 µM | CAKI-1 > 100 µM | OVCAR-3 > 100 µM | HOP-62 > 100 µM | UO-31 > 100 µM | HCT-116 83.9 µM | OVCAR-4 > 100 µM | U-251 > 100 µM | SF-295 > 100 µM | CCRF-CEM 20.8 µM | HCC 2998 > 100 µM | HT-29 > 100 µM | MDA-MB-435 > 100 µM

CCc1nc2c(n1CC)C(=O)c1ccccc1C2=O
inactive: Hs-578T 67.6 µM | NCI-H460 39.1 µM | SF-268 69 µM | EKVX 91.6 µM | SNB-19 45.6 µM | OVCAR-3 18.7 µM | HOP-62 42.5 µM | HCT-116 > 10 µM | RPMI-8226 > 100 µM | OVCAR-4 34.9 µM | U-251 44.2 µM | SF-295 48.1 µM | IGROV-1 24.5 µM | CCRF-CEM 45.7 µM | HCC 2998 42.1 µM | HT-29 24.9 µM | MDA-MB-435 18.3 µM

CSC1=N/C(=C\c2c[nH]c3ccccc23)C(=O)N1
inactive: Hs-578T 43.4 µM | NCI-H460 49.7 µM | SF-268 71 µM | SNB-19 > 100 µM | OVCAR-3 85.3 µM | HOP-62 76.9 µM | UO-31 35.8 µM | HCT-116 70.3 µM | RPMI-8226 77.4 µM | OVCAR-4 71.4 µM | U-251 56.4 µM | IGROV-1 67.6 µM | CCRF-CEM > 100 µM | HCC 2998 21.9 µM | HT-29 31.6 µM | MDA-MB-435 55.2 µM

Cc1cccc(-c2nc3ccc([N+](=O)[O-])cc3c(=O)o2)c1
inactive: Hs-578T 22 µM | NCI-H460 51.8 µM | SF-268 60.3 µM | CAKI-1 > 100 µM | OVCAR-3 47.9 µM | HOP-62 46.1 µM | UO-31 43.8 µM | HCT-116 42.8 µM | RPMI-8226 45.6 µM | OVCAR-4 68.9 µM | U-251 44.4 µM | SF-295 36.1 µM | IGROV-1 > 100 µM | CCRF-CEM 27.8 µM | HCC 2998 > 100 µM | HT-29 62.4 µM | MDA-MB-435 89.7 µM

CC(C)(C)c1cc(C(=O)Nc2cc(Br)c(Br)cc2S(N)(=O)=O)cc(C(C)(C)C)c1O
inactive: Hs-578T 11.9 µM | SF-268 13.3 µM | EKVX 12.8 µM | SNB-19 13.3 µM | CAKI-1 9.93 µM | OVCAR-3 7.91 µM | HOP-62 20.9 µM | UO-31 10.5 µM | HCT-116 8.24 µM | RPMI-8226 8.32 µM | OVCAR-4 12.1 µM | U-251 12.5 µM | SF-295 14.2 µM | IGROV-1 12.6 µM | CCRF-CEM 4.28 µM | HCC 2998 5.07 µM | HT-29 5.01 µM | MDA-MB-435 12.3 µM

COc1ccc(/C=C2\Sc3nnc(-c4ccccc4)n3N=C2c2cc(F)c(Cl)cc2Cl)cc1OC
inactive: Hs-578T 20.6 µM | NCI-H460 > 100 µM | SF-268 21 µM | EKVX > 100 µM | CAKI-1 31 µM | OVCAR-3 > 100 µM | HOP-62 > 100 µM | UO-31 31.1 µM | HCT-116 6.24 µM | RPMI-8226 6.04 µM | OVCAR-4 18.2 µM | U-251 > 100 µM | SF-295 > 100 µM | IGROV-1 40.4 µM | CCRF-CEM 4.98 µM | HCC 2998 14.3 µM | HT-29 12.1 µM | MDA-MB-435 13.8 µM

CC(C)(C)OC(=O)N[C@H]1CCN(C2CCCCC2)C1=O
inactive: Hs-578T > 100 µM | NCI-H460 > 100 µM | SF-268 > 100 µM | EKVX > 100 µM | SNB-19 > 100 µM | HOP-62 > 100 µM | UO-31 > 100 µM | HCT-116 > 100 µM | RPMI-8226 > 100 µM | U-251 > 100 µM | IGROV-1 > 100 µM | CCRF-CEM > 100 µM | HCC 2998 > 100 µM | MDA-MB-435 > 100 µM

CCOc1cc(C2SCC(=O)N2c2ccc3c(c2)Oc2c(Cl)c4c(c(Cl)c2=N3)Oc2cc(N3C(=O)CSC3c3ccc(O)c(OCC)c3)ccc2N=4)ccc1O (centres undefined)
inactive: Hs-578T 73.5 µM | NCI-H460 30.6 µM | SF-268 21.4 µM | EKVX 37.2 µM | CAKI-1 > 100 µM | OVCAR-3 26.3 µM | HOP-62 31.6 µM | UO-31 68.1 µM | HCT-116 18 µM | RPMI-8226 31.8 µM | OVCAR-4 46.3 µM | U-251 21 µM | SF-295 38.9 µM | IGROV-1 41.9 µM | HCC 2998 21.9 µM | HT-29 39.8 µM | MDA-MB-435 35.1 µM

O=C1CC(=O)NC(NN2C(=O)CSC2c2ccccc2)=N1 (centres undefined)
inactive: Hs-578T > 100 µM | NCI-H460 > 100 µM | SF-268 > 100 µM | CAKI-1 > 100 µM | OVCAR-3 > 100 µM | HOP-62 > 100 µM | UO-31 > 100 µM | HCT-116 > 100 µM | RPMI-8226 > 100 µM | OVCAR-4 > 100 µM | U-251 > 100 µM | SF-295 > 100 µM | IGROV-1 > 100 µM | CCRF-CEM > 100 µM | HCC 2998 > 100 µM | HT-29 > 100 µM | MDA-MB-435 > 100 µM

COC(=O)C(C)(C)[C@@H]1OC(=O)N(S(=O)(=O)c2c(C)cc(C)cc2C)[C@H]1C(C)C
inactive: Hs-578T 43 µM | NCI-H460 55 µM | SF-268 > 100 µM | EKVX > 100 µM | SNB-19 > 100 µM | OVCAR-3 89.9 µM | HOP-62 > 100 µM | UO-31 > 100 µM | HCT-116 52.8 µM | RPMI-8226 > 100 µM | OVCAR-4 98.2 µM | U-251 > 100 µM | SF-295 > 100 µM | IGROV-1 > 100 µM | CCRF-CEM 75.9 µM | HCC 2998 > 100 µM | HT-29 65.8 µM | MDA-MB-435 > 100 µM

CCCCCCCCOC1C(O)C(O)C(O)C(O)C12CO2 (centres undefined)
inactive: Hs-578T 54.5 µM | NCI-H460 45.4 µM | SF-268 64.4 µM | SNB-19 91.4 µM | CAKI-1 90.4 µM | OVCAR-3 50.4 µM | HOP-62 44.6 µM | UO-31 78 µM | HCT-116 41 µM | RPMI-8226 50.2 µM | U-251 41.9 µM | SF-295 43.8 µM | IGROV-1 75.5 µM | CCRF-CEM 28.3 µM | HCC 2998 68.5 µM | HT-29 49.5 µM | MDA-MB-435 29.8 µM
